By pIC50 is commonly meant the IC50 on a negative log10 scale, so that one unit is a factor of ten.

pIC50: −log10 of the molar value. Like-named read-outs stand apart in the source and are kept apart here.

For the test, the system named is Hedgehog signaling pathway. The test can be described thus: Gli-Luc luciferase reporter gene assay in C3H10T1/2/Gli-Luc cells under Shh-N stimulation. Format: cell-based. Conditions: luciferase RLU, read-out: biological activity: IC50 of the inhibitory activities of compounds on the hedgehog pathway. In outline: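 C3H10T1/2 cells stably carrying a Gli-responsive luciferase reporter were stimulated with 30 nM Shh-N conditioned medium plus compound (7-point dilutions, duplicate) for 24 h at 37 °C. Luciferase luminescence read from lysates; IC50 by sigmoidal fit of RLU versus log concentration.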
In general terms: A reporter such as luciferase makes a cellular process visible.

On to `COc1c(-c2ccc(N3C[C@@H](C)O[C@@H](C)C3)cc2Cl)cnc2c(-c3ccc(C#N)cc3)cccc12` [Embodiment 170], for which the pIC50 (Mus musculus, C3H 10T1/2, 24 h) is no less than 7.30.
`COc1c(-c2ccc(N3C[C@@H](C)O[C@@H](C)C3)cn2)cnc2c(-c3ccc(C#N)cc3)cccc12` [Embodiment 171]: for the setting “Mus musculus, C3H 10T1/2, 24 h”, the negative logarithm of the IC50 (pIC50) was no less than 7.30.
With `COc1c(-c2ccc(N3C[C@@H](C)O[C@@H](C)C3)c(F)c2)cnc2c(-c3ccc(C#N)cc3)cccc12` [Embodiment 172], the pIC50 (Mus musculus, C3H 10T1/2, 24 h) was no less than 7.30.
Same read-out and setting: as for `COc1c(-c2ccc(N3C[C@@H](C)O[C@@H](C)C3)c(Cl)c2)cnc2c(-c3ccc(C#N)cc3)cccc12` [Embodiment 173], the figure is 6.30 to 7.00; as for `COc1c(-c2ccc(N3C[C@@H](C)O[C@@H](C)C3)c(C)c2)cnc2c(-c3ccc(C#N)cc3)cccc12` [Embodiment 174], 6.30 to 7.00.
The same measure, in the same setting: the same measure for `COc1c(-c2ccc(N3C[C@@H](C)O[C@@H](C)C3)nn2)cnc2c(-c3ccc(C#N)cc3)cccc12` [Embodiment 175, 4-(3-(6-((2S,6R)-2,6-dimethylmorpholino)pyridazin-3-yl)-4-methoxyquinolin-8-yl) benzonitrile]: 6.30 to 7.00; for `COc1c(-c2cnc(N3C[C@@H](C)O[C@@H](C)C3)nc2)cnc2c(-c3ccc(C#N)cc3)cccc12` [Embodiment 176, 4-(3-(2-((2S,6R)-2,6-dimethylmorpholino)pyrimidin-5-yl)-4-methoxyquinolin-8-yl) benzonitrile]: no less than 7.30.
On to `COc1c(-c2cnc(N3C[C@@H](C)O[C@@H](C)C3)cn2)cnc2c(-c3ccc(C#N)cc3)cccc12` [Embodiment 177], for which the negative logarithm of the IC50 (pIC50) (24 h) is no less than 7.30.
`COc1c(-c2ccc(C(=O)N3C[C@@H](C)O[C@@H](C)C3)s2)cnc2c(-c3ccc(C#N)cc3)cccc12` [Embodiment 178, 4-(3-(5-((2S,6R)-2,6-dimethylmorpholine-4-carbonyl)thiophen-2-yl)-4-methoxyquinolin-8-yl)benzonitrile]: the negative-log IC50 (pIC50) (Mus musculus, C3H 10T1/2, 24 h) is 6.30 to 7.00.
Consider `COc1c(-c2csc(N3C[C@@H](C)O[C@@H](C)C3)n2)cnc2c(-c3ccc(C#N)cc3)cccc12` [Embodiment 179, 4-(3-(2-(2,6-dimethylmorpholin-4-yl)thiazol-4-yl)-4-methoxyquinolin-8-yl) benzonitrile], for which the pIC50 (Mus musculus, C3H 10T1/2, 24 h) was 6.00 to 6.30.
Regarding `CCC(=O)N1[C@H](C)CN(c2ccc(-c3cnc4c(-c5ccc(C#N)cc5)cccc4c3OC)cc2)C[C@@H]1C` [Embodiment 180, 4-(3-(4-((3S, 5R)-3,5-dimethyl-4-propionylpiperazin-1-yl)phenyl)-4-methoxyquinolin-8-yl)benzonitrile], the negative-log IC50 (pIC50) (Mus musculus, C3H 10T1/2, 24 h) is no less than 7.30.
For `COc1c(-c2ccc(N3C[C@@H](C)N(C(=O)c4ccccc4)[C@@H](C)C3)cc2)cnc2c(-c3ccc(C#N)cc3)cccc12` [Embodiment 181], under “Mus musculus, C3H 10T1/2, 24 h”, the pIC50 is no less than 7.30.
The same measure, in the same setting: the same measure for `COC(=O)N1[C@H](C)CN(c2ccc(-c3cnc4c(-c5ccc(C#N)cc5)cccc4c3OC)cc2)C[C@@H]1C` [Embodiment 182]: no less than 7.30; for `CCOC(=O)N1[C@H](C)CN(c2ccc(-c3cnc4c(-c5ccc(C#N)cc5)cccc4c3OC)cc2)C[C@@H]1C` [Embodiment 183]: 7.00 to 7.30; for `CCCOC(=O)N1[C@H](C)CN(c2ccc(-c3cnc4c(-c5ccc(C#N)cc5)cccc4c3OC)cc2)C[C@@H]1C` [Embodiment 184]: 7.00 to 7.30.
`COc1c(-c2ccc(N3C[C@@H](C)N(C(=O)C(C)(C)O)[C@@H](C)C3)cc2)cnc2c(-c3ccc(C#N)cc3)cccc12` [Embodiment 185]: where the note is “Mus musculus, C3H 10T1/2, 24 h”, the pIC50 is 6.30 to 7.00.
On to `COc1c(-c2ccc(N3C[C@@H](C)N(C(=O)c4ccccn4)[C@@H](C)C3)cc2)cnc2c(-c3ccc(C#N)cc3)cccc12` [Embodiment 186], for which the pIC50 (Mus musculus, C3H 10T1/2, 24 h) was no less than 7.30.
On the same count and under the same terms, the same measure for `COc1c(-c2ccc(N3C[C@@H](C)N(C(=O)c4ncc[nH]4)[C@@H](C)C3)cc2)cnc2c(-c3ccc(C#N)cc3)cccc12` [Embodiment 187]: no less than 7.30; for `COc1c(-c2ccc(N3C[C@@H](C)N(S(C)(=O)=O)[C@@H](C)C3)nc2)cnc2c(-c3ccc(C#N)cc3)cccc12` [Embodiment 188, 4-(3-(6-(4-methylsulfonyl-3,5-dimethylpiperazin-1-yl)pyridin-3-yl)-4-methoxyquinolin-8-yl)benzonitrile]: no less than 7.30.
The same measure, in the same setting: as for `COc1c(-c2ccc(N3C[C@@H](C)N(C(=O)CO)[C@@H](C)C3)nc2)cnc2c(-c3ccc(C#N)cc3)cccc12` [Embodiment 189, 4-(3-(6-(4-(2-hydroxyacetyl)-3,5-dimethylpiperazin-1-yl)pyridin-3-yl)-4-methoxyquinolin-8-yl)benzonitrile], the figure is no less than 7.30; as for `COc1c(-c2ccc(N3Cc4nnc(C(F)(F)F)n4C(C)C3)cc2)cnc2c(-c3ccc(C#N)cc3)cccc12` (centres unmarked) [Embodiment 190, 4-(4-methoxy-3-(4-(5-methyl-3-(trifluoromethyl)-5,6-dihydro-[1,2,4]triazolo[4,3-a]pyrazin-7(8H)-yl)phenyl)quinolin-8-yl)benzonitrile], no less than 7.30; as for `COc1c(-c2ccc(N3CC(C)N(C(C)=O)C(C(C)(C)O)C3)cc2)cnc2c(-c3ccc(C#N)cc3)cccc12` (centres unmarked) [Embodiment 191, 4-(3-(4-(4-acetyl-3-(2-hydroxypropan-2-yl)-5-methylpiperazin-1-yl)phenyl)-4-methoxyquinolin-8-yl)benzonitrile], no less than 7.30.
With `COc1c(-c2ccc(N3C[C@@H](C(C)(C)O)O[C@@H](C)C3)cc2)cnc2c(-c3ccc(C#N)cc3)cccc12` [Embodiment 192, 4-(3-(4-((2S, 6S)-2-(2-hydroxypropan-2-yl)-6-methylmorpholino)phenyl)-4-methoxyquinolin-8-yl)benzonitrile], where the note is “Mus musculus, C3H 10T1/2, 24 h”, the pIC50 is no less than 7.30.
The same measure, in the same setting: as for `COc1c(-c2ccc(N3C[C@@H](C)N(C(=O)C(C)F)[C@@H](C)C3)nc2)cnc2c(-c3ccc(C#N)cc3)cccc12` (stereo partly drawn) [Embodiment 193, 4-(3-(6-((3S, 5R)-4-(2-fluoropropanoyl)-3,5-dimethylpiperazin-1-yl)pyridin-3-yl)-4-methoxyquinolin-8-yl)benzonitrile], the figure is 6.30 to 7.00; as for `COc1c(-c2ccc(N3C[C@@H](C)N(C(=O)C(C)(F)F)[C@@H](C)C3)nc2)cnc2c(-c3ccc(C#N)cc3)cccc12` [Embodiment 194], no less than 7.30.
Still for that read-out and setting: the same measure for `COc1c(-c2ccc(N3C[C@@H](C)N(C(=O)C(C)O)[C@@H](C)C3)nc2)cnc2c(-c3ccc(C#N)cc3)cccc12` (some centres unmarked) [Embodiment 195]: 7.00 to 7.30; for `COC(=O)N1[C@H](C)CN(c2ccc(-c3cnc4c(-c5ccc(C#N)cc5)cccc4c3OC)cn2)C[C@@H]1C` [Embodiment 196]: 6.30 to 7.00.
With `COc1c(-c2ccc(N3C[C@@H](C)N(C(=O)CC(F)(F)F)[C@@H](C)C3)nc2)cnc2c(-c3ccc(C#N)cc3)cccc12` [Embodiment 197], the pIC50 (Mus musculus, C3H 10T1/2, 24 h) is 6.00 to 6.30.
As for `COc1c(-c2ccc(N3C[C@@H](C)N(C(=O)CN)[C@@H](C)C3)nc2)cnc2c(-c3ccc(C#N)cc3)cccc12` [Embodiment 198], the pIC50 (Mus musculus, C3H 10T1/2, 24 h) is 7.00 to 7.30.
The same measure, in the same setting: as for `COc1c(-c2ccc(N3C[C@@H](C)N(C(=O)C(C)N)[C@@H](C)C3)nc2)cnc2c(-c3ccc(C#N)cc3)cccc12` (some centres unmarked) [Embodiment 199], the figure is 6.30 to 7.00; as for `COc1c(-c2ccc(N3C[C@@H](C)N(C(=O)c4cccnc4)[C@@H](C)C3)cc2)cnc2c(-c3ccc(C#N)cc3)cccc12` [Embodiment 200], no less than 7.30; as for `COc1c(-c2ccc(N3C[C@@H](C)N(C(=O)c4ccncc4)[C@@H](C)C3)cc2)cnc2c(-c3ccc(C#N)cc3)cccc12` [Embodiment 201], no less than 7.30.
Same read-out and setting: as for `CCC(=O)N1[C@H](C)CN(c2ccc(-c3cnc4c(-c5ccc(C#N)cc5C)cccc4c3OC)cn2)C[C@@H]1C` [Embodiment 202], the figure is no less than 7.30.
On the same count and under the same terms, as for `COc1c(-c2ccc(N3C[C@@H](C)N(C(=O)c4cncc(C)c4)[C@@H](C)C3)cc2)cnc2c(-c3ccc(C#N)cc3)cccc12` [Embodiment 203], the figure is no less than 7.30; as for `CCC(=O)N1[C@H](C)CN(c2ccc(-c3cnc4c(-c5ccc(C#N)cc5)cccc4c3OC)cn2)C[C@@H]1C` [Embodiment 204], no less than 7.30; as for `CCC(=O)N1[C@@H]2CC[C@H]1CN(c1ccc(-c3cnc4c(-c5ccc(C#N)cc5)cccc4c3OC)cn1)C2` [Embodiment 205, 4-(4-methoxy-3-(6-(8-propionyl-3,8-diazabicyclo[3.2.1]octan-3-yl)pyridin-3-yl)quinolin-8-yl)benzonitrile], 7.00 to 7.30.
As to `COc1c(-c2ccc(N3C[C@@H](C)N(c4nccs4)[C@@H](C)C3)nc2)cnc2c(-c3ccc(C#N)cc3)cccc12` [Embodiment 206, 4-(3-(6-((3S,5R)-3,5-dimethyl-4-(thiazol-2-yl)piperazin-1-yl)pyridin-3-yl)-4-methoxyquinolin-8-yl)benzonitrile], where the note is “Mus musculus, C3H 10T1/2, 24 h”, the pIC50 was no less than 7.30.
Same read-out and setting: as for `COc1c(N2CCN(C(=O)Cc3ccncc3)CC2)cnc2c(-c3ccc(C#N)cc3)cccc12` [Embodiment 207, 4-(4-methoxy-3-(4-(2-(pyridin-4-yl)acetyl)piperazin-1-yl)quinolin-8-yl)benzonitrile], the figure is 6.30 to 7.00.
Still for that read-out and setting: as for `COc1c(N2CCNCC2)cnc2c(-c3ccc(C#N)cc3)cccc12` [Embodiment 208], the figure is 6.30 to 7.00.
Take `COc1c(N2CCN(C(=O)Nc3ccncc3)CC2)cnc2c(-c3ccc(C#N)cc3)cccc12` [Embodiment 209]: the pIC50 (Mus musculus, C3H 10T1/2, 24 h) is no less than 7.30.
The same measure, in the same setting: the same measure for `COc1c(N2CCN(C(=O)NC3CCCCC3)CC2)cnc2c(-c3ccc(C#N)cc3)cccc12` [Embodiment 210]: no less than 7.30; for `COc1c(N2CCN(C(=O)Nc3cccc(C)c3)CC2)cnc2c(-c3ccc(C#N)cc3)cccc12` [Embodiment 211]: no less than 7.30.
Same read-out and setting: as for `COc1c(N2CCN(C(=O)NC3CCOCC3)CC2)cnc2c(-c3ccc(C#N)cc3)cccc12` [Embodiment 212], the figure is no less than 7.30; as for `COc1c(N2CCN(C(=O)N(C)C3CCOCC3)CC2)cnc2c(-c3ccc(C#N)cc3)cccc12` [Embodiment 213], no less than 7.30.

The values are drawn from patent publication US9938292B2 (GUANGDONG ZHONGSHENG PHARMACEUTICAL CO., LTD, priority 2014, dated 2018).
